Reference: ChEMBL document CHEMBL5030517, “6-Halopyridylmethylidene Penicillin-Based Sulfones Efficiently Inactivate the Natural Resistance of Pseudomonas aeruginosa to β-Lactam Antibiotics” (J Med Chem, 2021)
In brackets after ≈: the same amount, converted by molar mass. Activity calls are given as the source filed them. The rule behind the calls is not given here.

Legend:
[1] = system: Pseudomonas aeruginosa PAO1; test: Inhibition of beta-lactamase activity in Pseudomonas aeruginosa PAO1 PAHUAC-27(ST-22) assessed as MIC for cefpodoxime antibacterial activity at 16 mg/L by broth microdilution method
[2] = system: Pseudomonas aeruginosa PAO1; test: Inhibition beta lactamase PDC-1 in Pseudomonas aeruginosa PAO1 assessed as ratio of kinact/K1 using nitrocefin as substrate measured by 96 well microtitre plate
[3] = system: Pseudomonas aeruginosa PAO1; test: Inhibition of beta-lactamase activity in Pseudomonas aeruginosa PAO1 deltadacBdeltapbpGdeltadacC assessed as MIC for cefpodoxime antibacterial activity at 16 mg/L by broth microdilution method
[4] = system: Pseudomonas aeruginosa PAO1; test: Inhibition beta lactamase PDC-1 in Pseudomonas aeruginosa PAO1 assessed as inactivation efficiency by measuring acylation rate (k2/K) using nitrocefin as substrate measured by 96 well microtitre plate
[5] = system: Pseudomonas aeruginosa PAO1; test: Inhibition of beta-lactamase activity in Pseudomonas aeruginosa PAO1 17/14-017 (ST-235) assessed as MIC for cefpodoxime antibacterial activity at 16 mg/L by broth microdilution method
[6] = system: Pseudomonas aeruginosa PAO1; test: Inhibition of beta-lactamase activity in Pseudomonas aeruginosa PAO1 deltadacBdeltadacC assessed as MIC for cefpodoxime antibacterial activity at 4 mg/L by broth microdilution method
Pseudomonas aeruginosa = test: Inhibition of beta lactamase PDC-1 in Pseudomonas aeruginosa PAO1 for 30 min using MALDI TOF-MS analysis
[7] = system: Pseudomonas aeruginosa PAO1; test: Inhibition of beta-lactamase activity in Pseudomonas aeruginosa PAO1 deltadacBdeltapbpGdeltadacC assessed as MIC for cefpodoxime antibacterial activity at 4 mg/L by broth microdilution method
[8] = system: Pseudomonas aeruginosa PAO1; test: Inhibition of beta-lactamase activity in Pseudomonas aeruginosa PAO1 deltaampD assessed as MIC for cefpodoxime antibacterial activity at 16 mg/L by broth microdilution method
[9] = system: Pseudomonas aeruginosa PAO1; test: Inhibition of beta-lactamase activity in Pseudomonas aeruginosa PAO1 deltaampD assessed as MIC for cefpodoxime antibacterial activity at 4 mg/L by broth microdilution method
[10] = system: Pseudomonas aeruginosa PAO1; test: Inhibition of beta lactamase PDC-1 in Pseudomonas aeruginosa PAO1 assessed as reduction in enzyme activity using nitrocefin as chromogenic substrate preincubated for 10 min using 96 well microtiter plate
[11] = system: Pseudomonas aeruginosa PAO1; test: Inhibition of beta-lactamase activity in Pseudomonas aeruginosa PAO1 36/14-210 (ST-235) assessed as MIC for cefpodoxime antibacterial activity at 16 mg/L by broth microdilution method
[12] = system: Pseudomonas aeruginosa PAO1; test: Inhibition beta lactamase PDC-1 in Pseudomonas aeruginosa PAO1 assessed as deacylation off-rate using nitrocefin as substrate at 30 mins measured by 96 well microtitre plate
[13] = system: Pseudomonas aeruginosa PAO1; test: Inhibition of beta-lactamase activity in Pseudomonas aeruginosa PAO1 assessed as MIC for cefpodoxime antibacterial activity at 4 mg/L by broth microdilution method
[14] = system: Pseudomonas aeruginosa PAO1; test: Inhibition of beta-lactamase activity in Pseudomonas aeruginosa PAO1 deltaC assessed as MIC for cefpodoxime antibacterial activity at 16 mg/L by broth microdilution method
[15] = system: Pseudomonas aeruginosa PAO1; test: Inhibition of beta-lactamase activity in Pseudomonas aeruginosa PAO1 13/09-018 (ST-175) assessed as MIC for cefpodoxime antibacterial activity at 16 mg/L by broth microdilution method
[16] = system: Pseudomonas aeruginosa PAO1; test: Inhibition of beta-lactamase activity in Pseudomonas aeruginosa PAO1 deltaC+pUCP-(PDC-5) assessed as MIC for cefpodoxime antibacterial activity at 4 mg/L by broth microdilution method
[17] = system: Pseudomonas aeruginosa PAO1; test: Inhibition of beta-lactamase activity in Pseudomonas aeruginosa PAO1 deltadacBdeltaampD assessed as MIC for cefpodoxime antibacterial activity at 4 mg/L by broth microdilution method
[18] = system: Pseudomonas aeruginosa PAO1; test: Inhibition of beta-lactamase activity in Pseudomonas aeruginosa PAO1 23/14-053 (ST-309) assessed as MIC for cefpodoxime antibacterial activity at 16 mg/L by broth microdilution method
[19] = system: Pseudomonas aeruginosa PAO1; test: Inhibition of beta-lactamase activity in Pseudomonas aeruginosa PAO1 23/14-053 (ST-309) assessed as MIC for cefpodoxime antibacterial activity at 4 mg/L by broth microdilution method
[20] = system: Pseudomonas aeruginosa PAO1; test: Inhibition of beta-lactamase activity in Pseudomonas aeruginosa PAO1 53/22-113 (ST-244) assessed as MIC for cefpodoxime antibacterial activity at 4 mg/L by broth microdilution method
[21] = system: Pseudomonas aeruginosa PAO1; test: Inhibition of beta-lactamase activity in Pseudomonas aeruginosa PAO1 deltaDdeltsDh2deltaDh3 assessed as MIC for cefpodoxime antibacterial activity at 16 mg/L by broth microdilution method
[22] = system: Pseudomonas aeruginosa PAO1; test: Inhibition of beta-lactamase activity in Pseudomonas aeruginosa PAO1 6/04-224 (ST-175) assessed as MIC for cefpodoxime antibacterial activity at 4 mg/L by broth microdilution method
[23] = system: Pseudomonas aeruginosa PAO1; test: Inhibition of beta-lactamase activity in Pseudomonas aeruginosa PAO1 deltaC+pUCP-(PDC-1) assessed as MIC for cefpodoxime antibacterial activity at 16 mg/L by broth microdilution method
[24] = system: Pseudomonas aeruginosa PAO1; test: Inhibition of beta-lactamase activity in Pseudomonas aeruginosa PAO1 PAHUAC-14 (ST-966) assessed as MIC for cefpodoxime antibacterial activity at 16 mg/L by broth microdilution method
[25] = system: Pseudomonas aeruginosa PAO1; test: Inhibition of beta-lactamase activity in Pseudomonas aeruginosa PAO1 assessed as MIC for cefpodoxime antibacterial activity at 16 mg/L by broth microdilution method
[26] = system: Pseudomonas aeruginosa PAO1; test: Inhibition of beta-lactamase activity in Pseudomonas aeruginosa PAO1 deltadacBdeltadacC assessed as MIC for cefpodoxime antibacterial activity at 16 mg/L by broth microdilution method
[27] = system: Pseudomonas aeruginosa PAO1; test: Inhibition of beta-lactamase activity in Pseudomonas aeruginosa PAO1 deltaDdeltsDh2deltaDh3 assessed as MIC for cefpodoxime antibacterial activity at 4 mg/L by broth microdilution method
[28] = system: Pseudomonas aeruginosa PAO1; test: Inhibition of beta-lactamase activity in Pseudomonas aeruginosa PAO1 53/22-113 (ST-244) assessed as MIC for cefpodoxime antibacterial activity at 16 mg/L by broth microdilution method
[29] = system: Pseudomonas aeruginosa PAO1; test: Inhibition of beta-lactamase activity in Pseudomonas aeruginosa PAO1 17/14-017 (ST-235) assessed as MIC for cefpodoxime antibacterial activity at 4 mg/L by broth microdilution method
[30] = Inhibition beta lactamase PDC-1 in Pseudomonas aeruginosa PAO1 using nitrocefin as substrate measured by 96 well microtitre plate
[31] = system: Pseudomonas aeruginosa PAO1; test: Inhibition of beta-lactamase activity in Pseudomonas aeruginosa PAO1 36/14-210 (ST-235) assessed as MIC for cefpodoxime antibacterial activity at 4 mg/L by broth microdilution method
[32] = system: Pseudomonas aeruginosa PAO1; test: Inhibition of beta-lactamase activity in Pseudomonas aeruginosa PAO1 PAHUAC-27(ST-22) assessed as MIC for cefpodoxime antibacterial activity at 4 mg/L by broth microdilution method
[33] = system: Pseudomonas aeruginosa PAO1; test: Inhibition of beta-lactamase activity in Pseudomonas aeruginosa PAO1 deltadacBdeltaampD assessed as MIC for cefpodoxime antibacterial activity at 16 mg/L by broth microdilution method
[34] = system: Pseudomonas aeruginosa PAO1; test: Inhibition beta lactamase PDC-1 in Pseudomonas aeruginosa PAO1 assessed half life of nitrocefin substrate measured by 96 well microtitre plate assay
[35] = system: Pseudomonas aeruginosa PAO1; test: Inhibition of beta-lactamase activity in Pseudomonas aeruginosa PAO1 deltadacB assessed as MIC for cefpodoxime antibacterial activity at 16 mg/L by broth microdilution method
[36] = system: Pseudomonas aeruginosa PAO1; test: Inhibition beta lactamase PDC-1 in Pseudomonas aeruginosa PAO1 assessed as maximum rate of inactivation using nitrocefin as substrate measured by 96 well microtitre plate
[37] = system: Pseudomonas aeruginosa PAO1; test: Inhibition of beta-lactamase activity in Pseudomonas aeruginosa PAO1 6/04-224 (ST-175) assessed as MIC for cefpodoxime antibacterial activity at 16 mg/L by broth microdilution method
[38] = Inhibition beta lactamase PDC-1 in Pseudomonas aeruginosa PAO1 assessed as apparent inhibition constant using nitrocefin as substrate measured by 96 well microtitre plate; details: read-out: Ki(app)
[39] = system: Pseudomonas aeruginosa PAO1; test: Inhibition of beta-lactamase activity in Pseudomonas aeruginosa PAO1 deltaC+pUCP-(PDC-5) assessed as MIC for cefpodoxime antibacterial activity at 16 mg/L by broth microdilution method
[40] = system: Pseudomonas aeruginosa PAO1; test: Inhibition of beta-lactamase activity in Pseudomonas aeruginosa PAO1 deltaC+pUCP-(PDC-1) assessed as MIC for cefpodoxime antibacterial activity at 4 mg/L by broth microdilution method
[41] = system: Pseudomonas aeruginosa PAO1; test: Inhibition of beta-lactamase activity in Pseudomonas aeruginosa PAO1 PAHUAC-14 (ST-966) assessed as MIC for cefpodoxime antibacterial activity at 4 mg/L by broth microdilution method
[42] = system: Pseudomonas aeruginosa PAO1; test: Inhibition of beta-lactamase activity in Pseudomonas aeruginosa PAO1 13/09-018 (ST-175) assessed as MIC for cefpodoxime antibacterial activity at 4 mg/L by broth microdilution method
[43] = system: Pseudomonas aeruginosa PAO1; test: Inhibition of beta-lactamase activity in Pseudomonas aeruginosa PAO1 deltaC assessed as MIC for cefpodoxime antibacterial activity at 4 mg/L by broth microdilution method
[44] = system: Pseudomonas aeruginosa PAO1; test: Inhibition of beta-lactamase activity in Pseudomonas aeruginosa PAO1 deltadacB assessed as MIC for cefpodoxime antibacterial activity at 4 mg/L by broth microdilution method

C[C@]1(COC(=O)Cc2ccc(O)c(O)c2)[C@H](C(=O)O)N2C(=O)/C(=C/c3ccc(F)cn3)[C@H]2S1(=O)=O
MIC [1]: 2 µg/mL (≈ 3.95 µM)
K [2]: 5 10^5/M/s
MIC [3]: 0.5 µg/mL (≈ 0.987 µM)
k2/K inactivation efficiency [4]: 6.8 M⁻¹ s⁻¹
MIC [5]: 4 µg/mL (≈ 7.9 µM)
MIC [6]: 2 µg/mL (≈ 3.95 µM)
inhibition (Pseudomonas aeruginosa): inactive
MIC [7]: 1 µg/mL (≈ 1.97 µM)
MIC [8]: 1 µg/mL (≈ 1.97 µM)
MIC [9]: 8 µg/mL (≈ 15.8 µM)
inhibition [10]: inactive
MIC [11]: 8 µg/mL (≈ 15.8 µM)
K [12]: 9 10^-2/min
MIC [13]: 1 µg/mL (≈ 1.97 µM)
MIC [14]: 1 µg/mL (≈ 1.97 µM)
MIC [15]: 8 µg/mL (≈ 15.8 µM)
MIC [16]: 2 µg/mL (≈ 3.95 µM)
MIC [17]: 8 µg/mL (≈ 15.8 µM)
MIC [18]: 2 µg/mL (≈ 3.95 µM)
MIC [19]: 2 µg/mL (≈ 3.95 µM)
MIC [20]: 8 µg/mL (≈ 15.8 µM)
MIC [21]: 1 µg/mL (≈ 1.97 µM)
MIC [22]: 8 µg/mL (≈ 15.8 µM)
MIC [23]: 1 µg/mL (≈ 1.97 µM)
MIC [24]: 2 µg/mL (≈ 3.95 µM)
MIC [25]: 1 µg/mL (≈ 1.97 µM)
MIC [26]: 0.5 µg/mL (≈ 0.987 µM)
MIC [27]: 8 µg/mL (≈ 15.8 µM)
MIC [28]: 4 µg/mL (≈ 7.9 µM)
MIC [29]: 4 µg/mL (≈ 7.9 µM)
IC50 [30]: 6.3 nM
MIC [31]: 16 µg/mL (≈ 31.6 µM)
MIC [32]: 4 µg/mL (≈ 7.9 µM)
MIC [33]: 2 µg/mL (≈ 3.95 µM)
T1/2 [34]: 1.3 h
MIC [35]: 0.5 µg/mL (≈ 0.987 µM)
Kinact [36]: 0.013 s⁻¹
MIC [37]: 8 µg/mL (≈ 15.8 µM)
Ki [38]: 110 nM
MIC [39]: 2 µg/mL (≈ 3.95 µM)
MIC [40]: 1 µg/mL (≈ 1.97 µM)
MIC [41]: 8 µg/mL (≈ 15.8 µM)
MIC [42]: 2 µg/mL (≈ 3.95 µM)
MIC [43]: 1 µg/mL (≈ 1.97 µM)
MIC [44]: 1 µg/mL (≈ 1.97 µM)

C[C@]1(COC(=O)Cc2ccc(O)c(O)c2)[C@H](C(=O)O)N2C(=O)/C(=C/c3cc(Br)ccn3)[C@H]2S1(=O)=O
MIC [1]: 1 µg/mL (≈ 1.76 µM)
K [2]: 20.9 10^5/M/s
MIC [3]: 0.5 µg/mL (≈ 0.881 µM)
k2/K inactivation efficiency [4]: 6.2 M⁻¹ s⁻¹
MIC [5]: 2 µg/mL (≈ 3.53 µM)
MIC [6]: 1 µg/mL (≈ 1.76 µM)
inhibition (Pseudomonas aeruginosa): inactive
MIC [7]: 1 µg/mL (≈ 1.76 µM)
MIC [8]: 1 µg/mL (≈ 1.76 µM)
MIC [9]: 1 µg/mL (≈ 1.76 µM)
inhibition [10]: inactive
MIC [11]: 8 µg/mL (≈ 14.1 µM)
K [12]: 7 10^-2/min
MIC [13]: 1 µg/mL (≈ 1.76 µM)
MIC [14]: 1 µg/mL (≈ 1.76 µM)
MIC [15]: 8 µg/mL (≈ 14.1 µM)
MIC [16]: 2 µg/mL (≈ 3.53 µM)
MIC [17]: 4 µg/mL (≈ 7.05 µM)
MIC [18]: 2 µg/mL (≈ 3.53 µM)
MIC [19]: 2 µg/mL (≈ 3.53 µM)
MIC [20]: 4 µg/mL (≈ 7.05 µM)
MIC [21]: 1 µg/mL (≈ 1.76 µM)
MIC [22]: 8 µg/mL (≈ 14.1 µM)
MIC [23]: 1 µg/mL (≈ 1.76 µM)
MIC [24]: 2 µg/mL (≈ 3.53 µM)
MIC [25]: 1 µg/mL (≈ 1.76 µM)
MIC [26]: 0.5 µg/mL (≈ 0.881 µM)
MIC [27]: 1 µg/mL (≈ 1.76 µM)
MIC [28]: 4 µg/mL (≈ 7.05 µM)
MIC [29]: 2 µg/mL (≈ 3.53 µM)
IC50 [30]: 0.9 nM
MIC [31]: 16 µg/mL (≈ 28.2 µM)
MIC [32]: 1 µg/mL (≈ 1.76 µM)
MIC [33]: 1 µg/mL (≈ 1.76 µM)
T1/2 [34]: 1.75 h
MIC [35]: 0.5 µg/mL (≈ 0.881 µM)
Kinact [36]: 0.032 s⁻¹
MIC [37]: 8 µg/mL (≈ 14.1 µM)
Ki [38]: 14 nM
MIC [39]: 1 µg/mL (≈ 1.76 µM)
MIC [40]: 1 µg/mL (≈ 1.76 µM)
MIC [41]: 4 µg/mL (≈ 7.05 µM)
MIC [42]: 2 µg/mL (≈ 3.53 µM)
MIC [43]: 1 µg/mL (≈ 1.76 µM)
MIC [44]: 1 µg/mL (≈ 1.76 µM)
